Values quoted from earlier work as cited in patent publication US20090306452A1, “APPARATUS FOR TREATING A CONTAMINATED MEDIA WITH A SORBENT” (priority 2008, published 2009).

Details: log10 of concentration in octanol / concentration in water; examples of hydrophobic hazardous materials
In the case of hexafluoromethane, the “Log P” value is given as “about 2”.
For `c1ccc2c(c1)Oc1ccccc1O2` [dibenzo (1,4) dioxin], the “Log P” value is given as “about 4”.
In the case of `Clc1cc(Cl)cc(C2(CC(Cl)(Cl)Cl)CO2)c1` (stereo not shown) [2-(3,5-dichlorophenyl)-2-(2,2,2-trichloroethyl) oxirane], the “Log P” value is listed as “about 4”.
In the case of `Clc1cc2oc3c(Cl)cc(Cl)c(Cl)c3c2c(Cl)c1Cl` [1,2,3,6,8,9-hexachloro-dibenzofuran], the “Log P” value is given as “about 7”.
